In PMC5513743 (Journal of medical virology, 2017):
Like-named read-outs stand apart in the source and are kept apart here.

Experiments:
[1] = test system: HCV replicon cell line AVA5 (sub-genomic (CON1), genotype 1b); experiment: microbe, parasite or virus in culture; details: Hepatitis C virus, GETYPE1B, Ava5, read-out: EC50 (μM) (individual agent)
[2] = test system: fused THP-1/Huh7 derivative cells; details: capture fusion assay, data not shown
replicon cell line AVA5 = details: Table 2; SB 9200 monotherapy
in vitro [3] = experiment: in vitro
HCV = details: SAD and MAD seven-day Phase I study, chronic HCV patients; ref Thompson AJ, 2015; cited from earlier work
[4] = test system: HCV replicon cell line AVA5 (sub-genomic (CON1), genotype 1b)
in vitro [5] = details: human
[6] = test system: HCV replicon H/FL-Neo (genotype 1a (H77), full length construct); details: HCV genotype 1A replicon
patient derived HCV = experiment: microbe, parasite or virus in culture; assay type: cell-based, hepatitis C virus; details: for IC50: Hepatitis C virus, in Homo sapiens

Compound: NC(=O)c1ncn([C@@H]2O[C@H](CO)[C@@H](O)[C@H]2O)n1 [Ribavirin]
- EC50 [1]: > 30 µM

Compound: CO[C@@H]1[C@H](OP(=O)(OC[C@H]2O[C@@H](n3cnc4c(N)ncnc43)C[C@@H]2O)SCOC(=O)OC(C)C)[C@@H](CO)O[C@H]1n1ccc(=O)[nH]c1=O (stereo partly shown) [SB 9200]
- Cell viability [2]: not affected
- CC50 (replicon cell line AVA5): > 100000 nM
- CC50 (in vitro [3]): > 100000 nM
- safety and tolerability (HCV): safe, well tolerated
- S.I. (CC50/EC50) ([4]; HCV genotype 1B replicon): >100
- S.I. (CC50/EC50) ([4]; Table 2, SB 9200 monotherapy): >100
- CC50 (in vitro [5]): > 100000 nM
- S.I. (CC50/EC50) [6]: > 45
- inhibition of HCV replication (patient derived HCV; Genotypes 1,2,3,4, and 6 patient derived HCV): inhibited replication of all the genotypes tested in a dose-dependent manner
- IC50 (patient derived HCV; G1 strains, patient derived HCV): 220 ± 76 nM
- IC50 (patient derived HCV; G3 isolates, patient derived HCV): 35 ± 13 nM
- difference in activity (IC50) against pre- and post treatment quasi-species (patient derived HCV; g3 patient who failed SOF/DAC/RBV, NS5A RAS S62L and Y93H enriched): No significant difference
- antiviral activity (fold change in HCV RNA from non-treated controls) (patient derived HCV; single dose 0.1μM, G3 SVR and NR samples after DAA treatment): demonstrated antiviral activity

Compound: C/C=C/C[C@@H](C)[C@@H](O)[C@H]1C(=O)N[C@@H](CC)C(=O)N(C)[C@H](C)C(=O)N(CC)[C@@H](C(C)C)C(=O)N[C@@H](C(C)C)C(=O)N(C)[C@@H](CC(C)C)C(=O)N[C@@H](C)C(=O)N[C@H](C)C(=O)N(C)[C@@H](CC(C)C)C(=O)N(C)[C@@H](CC(C)C)C(=O)N(C)[C@@H](C(C)C)C(=O)N1C [alisporivir, reference compound]
- IC50 (patient derived HCV; G1 patient derived samples): 99 nM
- IC50 (patient derived HCV; G3 patient derived samples): 36 nM
